One assay relates to hypothalamic GT1-7 cells. Put plainly: IκBα mRNA levels in GT1-7 cells after TGF-β1 treatment. The conditions noted are these: transcription inhibitor added to TGF-β1-treated cells. In kind it is cell-based. From the text:
TGF-β degrades IκBα mRNA to atypically activate NF-κB: RNA SGs/PBs have the function to degrade mRNAs by targeting the AU-rich element (AUE) at the 3′ untranslated region (UTR) (36-38). […] This information led to the suspicion that TGF-β could work to degrade IκBα mRNA. […] To test if TGF-β induced IκBα mRNA decay is accountable for the glucose metabolism disorder, an experiment was designed to study if the pro-diabetic effect of brain TGF-β excess could be reversed through directly increasing hypothalamic IκBα mRNA. Using an approach which was established previously (23), a lentiviral system was employed to deliver exogenous Iκbα mRNA into the mediobasal hypothalamus of chow-fed C57BL/6 mice, and indeed, this lentivirus-delivered Iκbα mRNA prevented TGF-β1 injection from activating hypothalamic NF-κB (FIG. 5f). Metabolic analysis confirmed that this treatment attenuated the effect of TGF-β1 from impairing insulin-dependent glucose control (FIG. 5g).
Cell culture. GT1-7 cells were cultured as described previously (14). Briefly, GT1-7 cells were maintained in Dulbecco's Modified Eagle's Medium (Invitrogen) with 10% fetal bovine serum (Hyclone) and penicillin/streptomycin (Invitrogen), at 37° C. in a humidified atmosphere containing 5% CO2. Cells were fasted in serum-free medium for an overnight period, and then were subjected to TGF-β1 treatment at the indicated dose and time course.

Assay [1] concerns C57BL/6 mice with HFD-induced obesity. Kind of assay: Third-ventricle injection of TGFβ antagonist, GTT and ITT in mice with HFD-induced obesity. In kind it is in vivo. The conditions noted are these: HFD for 3 months; single injection in the third ventricle, overnight-fasted; vs vehicle; 2-hour treatment duration. The source says:
(§1) Central TGFβ blockade reverses glucose disorder under obesity or aging: It was studied whether TGFβ blockade could be applied to the CNS in order to reverse glucose and insulin disorders under disease conditions. To address this question, a mouse model was employed with HFD-induced obesity and therefore glucose and insulin intolerance. In this study, C57BL/6 mice were maintained under a HFD vs. a chow for 3 months. Subsequently, TGFβ antagonist SB431542 vs. vehicle was administrated to overnight-fasted mice through pre-implanted cannula. […] In parallel, using aging paradigm, it was further asked if TGFβ blockade could be used to intervene with glucose and insulin disorders independently of HFD feeding. To address this question, a similar procedure was applied to young vs. old mice; both mice were maintained on a normal chow since weaning. As shown in FIG. 7e-h, aging was associated with impairment of glucose tolerance and insulin tolerance in control group. […] Altogether, central inhibition of TGFβ through a pharmacological approach acutely normalizes the brain function to improve glucose and insulin homeostasis and treat type-2 diabetes.
(§2) Animals. […] Food intake and body weight of mice were measured using a laboratory scale. […] Blood glucose levels during GTT and ITT were measured with LifeScan® blood glucose monitoring system. […]

Assay [2] concerns old mice maintained on a normal chow. Kind of assay: Third-ventricle injection of TGFβ antagonist, GTT and ITT in aging paradigm. The class given is in vivo. Conditions: hypothalamic third-ventricle injection.
From the text: as §1, §2

Structures are written as SMILES. *1 amine or outer side, *2 acyl side, *3 side chain or, on linkers, in order; H or OH if unused. Where a SMILES comes first, the peptide text is derived from it. Bridges are numbered along the chain shown (N, C = ends). Roman numbers before positions name the chains, in order. [ ]: non-standard residue; d: D form. Actinocin(9to1) = Cc1c2oc3c(C)ccc(C(=O)[*:1])c3nc-2c(C(=O)[*:2])c(N)c1=O; NMeV = CN[C@H](C(=O)O)C(C)C; Sar = CNCC(=O)O

As for `Cc1c2oc3c(C)ccc(C(=O)N[C@@H]4C(=O)N[C@H](C(C)C)C(=O)N5CCC[C@H]5C(=O)N(C)CC(=O)N(C)[C@@H](C(C)C)C(=O)O[C@@H]4C)c3nc-2c(C(=O)N[C@@H]2C(=O)N[C@H](C(C)C)C(=O)N3CCC[C@H]3C(=O)N(C)CC(=O)N(C)[C@@H](C(C)C)C(=O)O[C@@H]2C)c(N)c1=O` [actinomycin D, reference compound] (I: T[dV]P[Sar][NMeV] / II: T[dV]P[Sar][NMeV]; ester I:1-I:C, II:1-II:C; linker I:N-II:N via Actinocin(9to1)), the “IκBα mRNA decay” value in the assay on hypothalamic GT1-7 cells is “further accelerated”.
Consider `NC(=O)c1ccc(-c2nc(-c3ccc4c(c3)OCO4)c(-c3ccccn3)[nH]2)cc1` [SB431542, 4-[4-(1,3-benzodioxol-5-yl)-5-(2-pyridinyl)-1H-imidazol-2-yl]benzamide], for which, in assay [1], the “glucose intolerance (GTT)” value is reported as “significantly reduced” and the “insulin intolerance (ITT)” value is on record as “significantly reduced”. For the same compound, in assay [2], the “glucose intolerance (GTT)” value is recorded as “significant reductions” and the “insulin intolerance (ITT)” value is “significant reductions”.

The values are drawn from patent US20170114128A1, “USE OF TGF-BETA ANTAGONISTS OF TREAT TYPE-2 DIABETES” (ALBERT EINSTEIN COLLEGE OF MEDICINE, INC., priority 2014, published 2017).
